Test results taken from ChEMBL document CHEMBL1128249, “2,4-Diamino-5-substituted-quinazolines as inhibitors of a human dihydrofolate reductase with a site-directed mutation at position 22 and of the dihydrofolate reductases from Pneumocystis carinii and Toxoplasma gondii” (J Med Chem, 1995).

How the values were obtained:
Dihydrofolate reductase [1] = molecular target: Dihydrofolate reductase (Homo sapiens, UniProt P00374); test: Inhibitory activity against Leu22-Phe mutant human Dihydrofolate reductase
Dihydrofolate reductase [2] = molecular target: T1, Dihydrofolate reductase (Homo sapiens, UniProt P00374); test: Inhibitory activity against Wild-type human DHFR
T1 sequence (P00374 whole entry): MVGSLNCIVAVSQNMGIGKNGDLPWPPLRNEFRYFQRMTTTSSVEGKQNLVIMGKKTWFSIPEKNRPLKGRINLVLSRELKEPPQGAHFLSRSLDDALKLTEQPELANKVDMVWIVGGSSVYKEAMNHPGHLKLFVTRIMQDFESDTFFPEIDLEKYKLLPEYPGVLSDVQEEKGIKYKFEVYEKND

Dihydrofolate reductase [3] = molecular target: T2, Dihydrofolate reductase (Pneumocystis carinii, UniProt P16184)
T2 sequence (P16184 whole entry): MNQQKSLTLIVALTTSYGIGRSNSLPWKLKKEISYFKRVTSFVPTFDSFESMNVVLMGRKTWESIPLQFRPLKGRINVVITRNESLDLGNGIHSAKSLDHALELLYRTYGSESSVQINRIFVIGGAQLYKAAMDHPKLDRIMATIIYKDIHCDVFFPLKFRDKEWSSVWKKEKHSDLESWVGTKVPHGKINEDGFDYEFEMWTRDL
Description: Inhibitory activity against Pneumocystis carinii Dihydrofolate reductase

Dihydrofolate reductase [4] = molecular target: T3, Dihydrofolate reductase (Rattus norvegicus, UniProt Q920D2)
T3 sequence (Q920D2 whole entry): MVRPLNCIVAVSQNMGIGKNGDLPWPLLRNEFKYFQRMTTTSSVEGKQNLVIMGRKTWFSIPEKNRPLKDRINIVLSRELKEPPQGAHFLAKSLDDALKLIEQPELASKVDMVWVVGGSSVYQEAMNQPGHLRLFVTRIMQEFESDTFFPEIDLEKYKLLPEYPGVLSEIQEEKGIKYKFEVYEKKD
Description: Inhibitory activity against rat liver Dihydrofolate reductase

[5] = molecular target: T4, Bifunctional dihydrofolate reductase-thymidylate synthase (Toxoplasma gondii, UniProt Q07422)
T4 sequence (Q07422 whole entry): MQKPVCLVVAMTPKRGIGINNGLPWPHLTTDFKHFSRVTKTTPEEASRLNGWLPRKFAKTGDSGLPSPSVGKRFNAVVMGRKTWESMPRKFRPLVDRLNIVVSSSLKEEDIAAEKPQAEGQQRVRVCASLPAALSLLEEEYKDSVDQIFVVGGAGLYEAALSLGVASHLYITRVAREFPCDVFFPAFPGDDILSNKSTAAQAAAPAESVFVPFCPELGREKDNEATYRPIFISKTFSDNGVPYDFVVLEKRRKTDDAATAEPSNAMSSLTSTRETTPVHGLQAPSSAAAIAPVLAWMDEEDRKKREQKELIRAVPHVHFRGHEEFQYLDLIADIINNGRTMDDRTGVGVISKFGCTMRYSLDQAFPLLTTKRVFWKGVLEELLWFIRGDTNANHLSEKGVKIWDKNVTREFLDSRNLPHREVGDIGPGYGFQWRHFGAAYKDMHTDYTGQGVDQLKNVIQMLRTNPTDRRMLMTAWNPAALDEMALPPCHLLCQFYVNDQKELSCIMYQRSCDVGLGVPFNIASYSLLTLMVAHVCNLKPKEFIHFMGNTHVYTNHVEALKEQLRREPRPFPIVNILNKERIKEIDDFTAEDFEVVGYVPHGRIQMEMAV
Description: Inhibitory activity against Toxoplasma gondii Dihydrofolate reductase

Dihydrofolate reductase [6] = molecular target: T1, Dihydrofolate reductase; test: Inhibitory compound against Wild-type human DHFR.

| SMILES | Ki (Dihydrofolate reductase [1]) | Ki (Dihydrofolate reductase [2]) | IC50 (Dihydrofolate reductase [3]) | IC50 (Dihydrofolate reductase [4]) | IC50 [5] | Ki (Dihydrofolate reductase [6]) |
| --- | --- | --- | --- | --- | --- | --- |
| Nc1nc(N)c2c(C#Cc3ccccc3)cccc2n1 | 96.3 nM | > 500 nM | > 30000 nM | > 30000 nM | > 30000 nM |  |
| COc1ccc(OC)c(N(C)Cc2cccc3nc(N)nc(N)c23)c1 | 250 nM |  | > 40000 nM | 84000 nM | > 40000 nM | > 500 nM |
| COc1ccc(OC)c(NCc2cccc3nc(N)nc(N)c23)c1 | 33 nM |  | > 5000 nM | > 5000 nM | > 5000 nM |  |
| COc1cc(CCc2cccc3nc(N)nc(N)c23)cc(OC)c1OC | 4.3 nM |  | 14000 nM | 3700 nM | 930 nM | 72 nM |
| COc1ccc(OC)c(CCc2cccc3nc(N)nc(N)c23)c1 | 4.2 nM |  | 19000 nM | 4100 nM | 5900 nM | 41 nM |
| COc1cc(N(C)Cc2cccc3nc(N)nc(N)c23)cc(OC)c1OC | 49 nM |  | > 20000 nM | 53000 nM | > 20000 nM | > 500 nM |
| COc1cc(NCc2cccc3nc(N)nc(N)c23)cc(OC)c1OC | 310 nM |  | > 20000 nM | > 20000 nM | > 20000 nM | > 500 nM |
| COc1ccc(OC)c(Cc2cnc3nc(N)nc(N)c3c2C)c1 [PIRITREXIM] | 38 nM | 33 nM |  |  |  |  |
| Nc1nc(N)c2c(/C=C/c3ccccc3)cccc2n1 | 1.8 nM |  | 10000 nM | 1500 nM | 1200 nM |  |
| Nc1nc(N)c2c(CNc3ccc(C(=O)NC(CCC(=O)O)C(=O)O)cc3)cccc2n1 (centres undefined) | 2.7 nM | 0.54 nM |  |  |  |  |
| COc1ccc(OC)c(C#Cc2cccc3nc(N)nc(N)c23)c1 | 140 nM |  | > 18000 nM | > 18000 nM | > 18000 nM | > 500 nM |
| Nc1nc(N)c2c(CCc3ccccc3)cccc2n1 | 2.9 nM |  | 3200 nM | 510 nM | 370 nM | 23 nM |
| Nc1nc(N)c2cc(CNc3ccc(C(=O)NC(CCC(=O)O)C(=O)O)cc3)ccc2n1 (centres undefined) | 0.01 nM | 0.00089 nM |  |  |  |  |
